Values joined by “and” are separate entries in the source; they are usually repeats but may differ in a detail not shown here. Equal entries are not always repeated.
System: BCL-2/PROTAC/VCB ternary complex (HiBit-BCL-2, HaloTag-VHL)
Experiment: NanoBRET intracellular ternary complex formation in 293T cells, BCL-2
Assay type: cell-based, human
Details: for nanoBRET ratio (610/450, background-subtracted), Ave, Bcl-2: Ave of Read2 and Read3; for nanoBRET ratio (610/450, background-subtracted), Ave, Bcl-2 / nanoBRET ratio (610/450, background-subtracted), Read2, Bcl-2 / nanoBRET ratio (610/450, background-subtracted), Read3, Bcl-2: triplicate wells
Summary of the method: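 293T cells were transfected with HiBit-BCL-xL or HiBit-BCL-2 plus HaloTag-VHL and incubated overnight with or without HaloTag NanoBRET 618 ligand in 4% FBS Opti-MEM. Serially diluted compounds were applied for 6 h at 37 °C. mBRET ratio from donor emission (450/50 nm) and acceptor emission (610 nm longpass) after Nano-Glo substrate.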

Row | SMILES | nanoBRET ratio (610/450, background-subtracted), Ave, Bcl-2 (0.004 uM) | nanoBRET ratio (610/450, background-subtracted), Read2, Bcl-2 (0.004 uM) | nanoBRET ratio (610/450, background-subtracted), Read3, Bcl-2 (0.004 uM) | nanoBRET ratio (610/450, background-subtracted), Ave, Bcl-2 (0.012 uM) | nanoBRET ratio (610/450, background-subtracted), Read2, Bcl-2 (0.012 uM) | nanoBRET ratio (610/450, background-subtracted), Read3, Bcl-2 (0.012 uM) | nanoBRET ratio (610/450, background-subtracted), Ave, Bcl-2 (0.111 uM) | nanoBRET ratio (610/450, background-subtracted), Read2, Bcl-2 (0.111 uM) | nanoBRET ratio (610/450, background-subtracted), Read3, Bcl-2 (0.111 uM) | nanoBRET ratio (610/450, background-subtracted), Ave, Bcl-2 (0.333 uM) | nanoBRET ratio (610/450, background-subtracted), Read2, Bcl-2 (0.333 uM) | nanoBRET ratio (610/450, background-subtracted), Read3, Bcl-2 (0.333 uM) | nanoBRET ratio (610/450, background-subtracted), Ave, Bcl-2 (1 uM) | nanoBRET ratio (610/450, background-subtracted), Read2, Bcl-2 (1 uM) | nanoBRET ratio (610/450, background-subtracted), Read3, Bcl-2 (1 uM) | nanoBRET ratio (610/450, background-subtracted), Ave, Bcl-2 (3 uM) | nanoBRET ratio (610/450, background-subtracted), Read2, Bcl-2 (3 uM) | nanoBRET ratio (610/450, background-subtracted), Read3, Bcl-2 (3 uM) | intracellular ternary complex formation with BCL-2 (in words) (NanoBRET, 293T cells, 6 h)
1 | Cc1ncsc1-c1ccc([C@H](C)NC(=O)[C@@H]2C[C@@H](O)CN2C(=O)[C@@H](NC(=O)CCCCCCC(=O)N2CCN(C[C@@]3(C)CCC(c4ccc(Cl)cc4)=C(CN4CCN(c5ccc(C(=O)NS(=O)(=O)c6ccc(N[C@H](CCN7CCOCC7)CSc7ccccc7)c(S(=O)(=O)C(F)(F)F)c6)cc5)CC4)C3)CC2)C(C)(C)C)cc1 [753a] | 3.986 and 4.005 and 4.171 | 4.213 and 3.959 and 4.208 | 3.759 and 4.052 and 4.1349 | 3.935 and 4.221 and 4.234 | 4.374 and 4.4563 and 4.486 | 3.4969 and 3.9866 and 3.982 | 5.182 and 5.692 and 5.227 | 5.4197 and 6.174 and 5.638 | 4.944 and 5.21 and 4.816 | 5.936 and 5.165 and 5.723 | 6.144 and 5.244 and 5.817 | 5.728 and 5.085 and 5.6284 | 4.911 and 5.007 and 4.802 | 5.2892 and 5.222 and 5.13 | 4.533 and 4.7919 and 4.4737 | 5.075 and 4.7947 and 5.072 | 5.352 and 5.171 and 5.538 | 4.798 and 4.419 and 4.6068 | –
2 | Cc1ncsc1-c1ccc([C@H](C)NC(=O)[C@@H]2C[C@@H](O)CN2C(=O)[C@@H](NC(=O)CCCCCCC(=O)N2CCN(C[C@]3(C)CCC(c4ccc(Cl)cc4)=C(CN4CCN(c5ccc(C(=O)NS(=O)(=O)c6ccc(N[C@H](CCN7CCOCC7)CSc7ccccc7)c(S(=O)(=O)C(F)(F)F)c6)cc5)CC4)C3)CC2)C(C)(C)C)cc1 [753b] | 4.377 and 3.959 and 4.565 | 4.539 and 4.475 and 4.818 | 4.215 and 3.442 and 4.311 | 5.266 and 5.391 and 5.383 | 5.627 and 5.5043 and 5.572 | 4.906 and 5.278 and 5.194 | 8.153 and 8.77 and 8.375 | 8.4844 and 9.173 and 8.444 | 7.821 and 8.367 and 8.306 | 10.2466 and 9.352 and 9.108 | 10.4847 and 9.4698 and 9.325 | 10.0085 and 9.234 and 8.89 | 9.221 and 9.808 and 9.597 | 8.91 and 9.99 and 9.879 | 9.531 and 9.627 and 9.314 | 10.0388 and 9.727 and 10.2545 | 10.3731 and 9.71 and 10.9724 | 9.704 and 9.745 and 9.537 | much higher activity to induce the ternary complex formation with both BCL-xL and BCL-2 relative to 753a

From paper PMC8617031, “Development of a BCL-xL and BCL-2 dual degrader with improved anti-leukemic activity,” (Nature Communications, 2021)
